Experiment in all cases: NCI tumour cell line growth inhibition, 48 h
Experiment [1] deals with MDA-N.
Experiment [2] relates to DMS 273 small cell lung.
The test system of experiment [3] is KM20L2 colon.
For experiment [4], the system named is LXFL 529 NSCLC.
In experiment [5] the test system is M19-MEL melanoma.
For experiment [6], the system named is SNB-78 CNS.
Experiment [7] concerns DMS 114 small cell lung.
Experiment [8] concerns RXF-631 renal.

“And” between values parts separate entries of the source, which are not always exact repeats. Equal values may be shown once.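 In this assay, cells in 96-well plates receive the compound at five concentrations for 48 hours. Endpoints are linearly interpolated between the surrounding concentrations. GI50: concentration for 50% inhibition of growth. TGI marks complete inhibition of growth.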 Where only a bound is given, the exact number is not on record here.

With `CC(C)C[CH2][Ge]([CH2]CC(C)C)([CH2]CC(C)C)[CH2]CC(C)C`, in experiment [1], the GI50 is more than 100 µM and the TGI is more than 100 µM.
For the compound `Nc1c(C(=O)NC23CC4CC(CC(C4)C2)C3)[n+]([O-])c2ccccc2[n+]1[O-]`, the TGI in experiment [2], in experiment [3], in experiment [4], in experiment [5] and in experiment [6] was more than 100 µM throughout.
In the case of `Cc1cn([C@H]2C[C@H](O)[C@@H](CO)O2)c(=O)nc1N`, the TGI in experiment [1] is more than 100 µM.
Take `ClC1c2ccccc2C2(c3ccccc3)OOC1(c1ccccc1)O2` (stereo not drawn): the TGI in experiment [7] was found to be 0.725 µM; in experiment [2] it was 3.17 µM; in experiment [3], 3.26 µM; in experiment [6] it was 3.19 µM.
On to `CC(O)C(NC(=O)c1ccccc1)C(=O)N(Cc1ccccc1)Cc1ccccc1` (stereo not drawn), for which the TGI in experiment [7], in experiment [2], in experiment [3], in experiment [4], in experiment [5] and in experiment [8] was more than 100 µM in each case. For the same compound, in experiment [6], the TGI is more than 100 µM.
On to `CCCCCCCCCCCCCCCC(=O)OCC1OC(OC)C(NC(=O)N(CCCl)N=O)C(O)C1O` (stereo not drawn), for which the TGI was 46.4 µM in experiment [7]; 25.2 µM in experiment [2]; 58.4 µM in experiment [3]; 37.4 µM in experiment [4]; more than 89.6 µM in experiment [5]; 32 µM in experiment [1]. Besides, the TGI in experiment [6] is more than 85.5 µM.
Take `CCC(C)c1cccc(C)c1NC(=O)C(=O)Cc1nc2ccccc2s1` (stereo not drawn): the TGI in experiment [7], in experiment [2], in experiment [3], in experiment [4], in experiment [5] and in experiment [6] was more than 100 µM throughout.
As to `CN(C)CCNC(=O)c1c2ccccc2cc2ccccc12`, the TGI in experiment [7] was more than 100 µM; in experiment [2], more than 100 µM; in experiment [3] it was more than 100 µM; in experiment [4] it was 80.8 µM; in experiment [5] it was more than 100 µM; in experiment [6], more than 100 µM.
As to `C[N+](C)(C)CC(CC(=O)[O-])C1CC1` (stereo not drawn), the TGI in experiment [7], in experiment [2], in experiment [3], in experiment [4], in experiment [5] and in experiment [8] was more than 100 µM each time.
As for `O=C1/C(=C/c2ccc(Cl)c(Cl)c2)CNC/C1=C\c1ccc(Cl)c(Cl)c1`, the TGI in experiment [7] was more than 32.7 µM; in experiment [2] it was 19.2 µM; in experiment [3], 24.2 µM; in experiment [4], 12.2 µM; in experiment [5] it was more than 58.1 µM; in experiment [1], 39.9 µM. The TGI in experiment [8] and in experiment [6] was more than 100 µM in each case.
For the compound `Oc1ccc2ccccc2c1N=Nc1ccc(Cl)cc1`, the TGI in experiment [1] is more than 100 µM.
For `O=c1ccn(C2(CO)C=C(CO)C(O)C2O)c(=O)[nH]1` (stereo not drawn), the TGI in experiment [7], in experiment [2], in experiment [3], in experiment [4], in experiment [5] and in experiment [8] was more than 25.7 µM in each case. Moreover, the TGI in experiment [6] was more than 25.7 µM.
As to `CC#CC#C/C=C1\C=CC2(OC=CC2OC(C)=O)O1` (stereo not drawn), the TGI was 45.6 µM in experiment [7]; 49.1 µM in experiment [2]; 10.2 µM in experiment [3]; 32.2 µM in experiment [4]; 30.1 µM in experiment [1]; 33.1 µM in experiment [8]. The TGI in experiment [6] worked out at 18.7 µM.
Turning to `CNc1ccc([N+](=O)[O-])c2c(NCCCN(C)C)ccnc12`, the TGI in experiment [7], in experiment [2], in experiment [3], in experiment [5] and in experiment [6] was more than 100 µM throughout.
Take `CCOc1cc2c(=O)oc3c(OC)ccc4ccc(c1OC)c2c43`: the TGI in experiment [1] is more than 100 µM.
In the case of `O=C(Oc1ccc2c(-c3ccccc3)c(C(=O)Nc3ccc(Cl)cc3)c(=O)oc2c1)c1ccccc1`, the TGI in experiment [7], in experiment [2], in experiment [3] and in experiment [5] was more than 100 µM each time.
Regarding `CN1C(=O)CCC1c1ccc2c(c1)oc(=O)n2C` (stereo not drawn), the TGI in experiment [7], in experiment [2], in experiment [3], in experiment [4], in experiment [5] and in experiment [6] was more than 100 µM in each case.
Take `CCCC(C)c1c(Cl)nc(Cl)nc1Cl` (stereo not drawn): the TGI in experiment [1] stood at 21 µM.
For `O=C1C(Br)=C(Br)C(=O)c2ccccc21`, the GI50 in experiment [7] is 17.6 µM and 1.91 µM; in experiment [2], 49.9 µM and 9.23 µM; in experiment [4], 19.2 µM and 5.82 µM; in experiment [5], 16.1 µM and 6.98 µM; in experiment [6] it was 26.5 µM and 7.52 µM. The TGI is 34.9 µM and 6.91 µM in experiment [7]; > 100 µM and 23.5 µM in experiment [2]; > 100 µM and 32.1 µM in experiment [3]; 34 µM and 11.7 µM in experiment [4]; 29.8 µM and 21.7 µM in experiment [5]; 11.4 µM in experiment [1]. For the same compound, the TGI in experiment [8] was 20.1 µM; in experiment [6], 48.9 µM and 18.4 µM.
As for `NC(CCc1ncc(-c2ccccc2)s1)C(=O)O` (stereo not drawn), the TGI in experiment [7], in experiment [2], in experiment [4], in experiment [8] and in experiment [6] was more than 100 µM each time.
For the compound `CC(C)CN1CC(C)C(=O)NC1=O` (stereo not drawn), the TGI in experiment [7], in experiment [2], in experiment [3], in experiment [4], in experiment [5] and in experiment [6] was more than 100 µM each time.

(Values after PubChem BioAssay (NCI).)
